Experimental data reported in ChEMBL document CHEMBL4483862, “Open-source discovery of chemical leads for next-generation chemoprotective antimalarials” (2018).

Test system: Plasmodium berghei
Experiment: Luciferase/luciferin-expressing antifolate-resistant parasites were used to infect a culture of HepG2 cells that were pre-incubated with compounds. Infected hepatocytes emit light due to the luciferase reaction. Assay results are presented as the percent inhibition of light emission compared to control. […]
Type: functional
Conditions: sporozoite; for IC90: read-out: LUCIFERASE INFECTION ASSAY - IC90

| SMILES | IC90 [µM] | also measured |
| --- | --- | --- |
| O=C(Nc1ccc(Cl)cc1)/C(=C/c1ccc([N+](=O)[O-])cc1)c1nc2ccccc2s1 | > 10 | IC50 (PBLUC_HILL_SLOPE 3.91, PBLUC_R_SQUARED 0.341, read-out: LUCIFERASE INFECTION ASSAY - IC50): 7.67 µM |
| CC(C)(C)c1cc(C(=O)Nc2ccccc2)n(Cc2ccc(Cl)cc2Cl)n1 | > 8.2 | IC50 (PBLUC_HILL_SLOPE 3.9, PBLUC_R_SQUARED 0.166, read-out: LUCIFERASE INFECTION ASSAY - IC50): 5.99 µM |
| O=C1NCC(CSc2nc3cc(Cl)ccc3c(=O)n2C2CCCCC2)O1 (stereo not given) | 7.92 | IC50 (PBLUC_HILL_SLOPE 3.9, PBLUC_R_SQUARED 0.536, read-out: LUCIFERASE INFECTION ASSAY - IC50): 4.51 µM |
| Cc1cc(C(=O)NCCc2cccc(F)c2)c(C)n1C(C)C | 0.0364 | IC50 (PBLUC_HILL_SLOPE 3.76, PBLUC_R_SQUARED 0.418, read-out: LUCIFERASE INFECTION ASSAY - IC50): 0.0203 µM |
| Cc1nc2ccccc2n1CCC(=O)Nc1cccc(C(F)(F)F)c1 | 8.78 | IC50 (PBLUC_HILL_SLOPE 3.83, PBLUC_R_SQUARED 0.29, read-out: LUCIFERASE INFECTION ASSAY - IC50): 4.95 µM |
| O=C(NCCCn1cnc2ccccc21)c1ccccc1Nc1ccccc1 | > 10 | IC50 (PBLUC_HILL_SLOPE 3.77, PBLUC_R_SQUARED 0.592, read-out: LUCIFERASE INFECTION ASSAY - IC50): 7.09 µM |
| COc1cccc(-c2nc3ccc(NC(=O)Nc4ccc5c(c4)OCO5)cn3n2)c1 | > 10 | IC50 (PBLUC_HILL_SLOPE 3.78, PBLUC_R_SQUARED 0.75, read-out: LUCIFERASE INFECTION ASSAY - IC50): 7.06 µM |
| COc1cc2c(c(OC)c1OC)Cc1cc(OC)c(OC)c(OC)c1C2 | 7.66 | IC50 (PBLUC_HILL_SLOPE 3.89, PBLUC_R_SQUARED 0.32, read-out: LUCIFERASE INFECTION ASSAY - IC50): 4.36 µM |
| CC(=O)c1cccc(-c2cnc3cnc(-c4ccccc4Cl)cn23)c1 | > 9.49 | IC50 (PBLUC_HILL_SLOPE 3.8, PBLUC_R_SQUARED 0.614, read-out: LUCIFERASE INFECTION ASSAY - IC50): 6.8 µM |
| Cc1cccc(N(C)c2ccnc3c(-c4ccc(C(=O)NC5CC5)cc4)cnn23)c1 | 6.33 | IC50 (PBLUC_HILL_SLOPE 3.89, PBLUC_R_SQUARED 0.384, read-out: LUCIFERASE INFECTION ASSAY - IC50): 3.6 µM |
| Cc1nn(-c2ccc(C(=O)N(Cc3ccccc3)Cc3nc(=O)c4ccccc4[nH]3)cc2)c(C)c1Cl | 3.52 | IC50 (PBLUC_HILL_SLOPE 3.8, PBLUC_R_SQUARED 0.516, read-out: LUCIFERASE INFECTION ASSAY - IC50): 1.98 µM |
| CCn1c2ccccc2c2cc(NC(=O)COC(=O)CC3CCCC3)ccc21 | 9.1 | IC50 (PBLUC_HILL_SLOPE 3.89, PBLUC_R_SQUARED 0.506, read-out: LUCIFERASE INFECTION ASSAY - IC50): 5.17 µM |
| CCOc1ccccc1C=C(c1nc2ccccc2s1)c1nc2ccccc2s1 | 9.81 | IC50 (PBLUC_HILL_SLOPE 3.78, PBLUC_R_SQUARED 0.344, read-out: LUCIFERASE INFECTION ASSAY - IC50): 5.48 µM |
| CN(Cc1ccc2c(c1)OCO2)c1ccc(C(=O)NC2CC2)cn1 | > 10 | IC50 (PBLUC_HILL_SLOPE 3.82, PBLUC_R_SQUARED 0.17, read-out: LUCIFERASE INFECTION ASSAY - IC50): 6.72 µM |
| COc1ccnc(N2CCN(C(c3ccccc3)c3ccccc3)CC2)c1C#N | > 8.58 | IC50 (PBLUC_HILL_SLOPE 3.87, PBLUC_R_SQUARED 0.686, read-out: LUCIFERASE INFECTION ASSAY - IC50): 5.89 µM |
| Cc1cc(C)cc(NC(=S)NC2CCCC(C)C2C)c1 (stereo not given) | 9.4 | IC50 (PBLUC_HILL_SLOPE 3.85, PBLUC_R_SQUARED 0.565, read-out: LUCIFERASE INFECTION ASSAY - IC50): 5.32 µM |
| FC(F)(F)c1cc(NCc2ccc(Cl)cc2)nc(-c2ccccn2)n1 | > 9.05 | IC50 (PBLUC_HILL_SLOPE 3.87, PBLUC_R_SQUARED 0.118, read-out: LUCIFERASE INFECTION ASSAY - IC50): 5.66 µM |
| CC(C)c1ccc(CN2CCN(C(=O)CNC(=O)c3ccc(Br)o3)CC2)cc1 | > 10 | IC50 (PBLUC_HILL_SLOPE 3.89, PBLUC_R_SQUARED 0.276, read-out: LUCIFERASE INFECTION ASSAY - IC50): 9.05 µM |
| COc1cc(NC(=O)N2CCc3nc(Nc4cc(C)cc(C)c4)ncc3C2)cc(OC)c1OC | > 7.12 | IC50 (PBLUC_HILL_SLOPE 3.8, PBLUC_R_SQUARED 0.0984, read-out: LUCIFERASE INFECTION ASSAY - IC50): 4.59 µM |
| O=C(Cn1cnc2c(cnn2-c2ccccc2[N+](=O)[O-])c1=O)Nc1ccc(OCc2ccccc2)cc1 | > 10 | IC50 (PBLUC_HILL_SLOPE 3.88, PBLUC_R_SQUARED 0.658, read-out: LUCIFERASE INFECTION ASSAY - IC50): 7.44 µM |

| SMILES | IC90 [µM] | also measured |
| --- | --- | --- |
| O=C(CCc1ccc(O)cc1)NNC(=S)Nc1ccc(Cl)c(Cl)c1 | > 8.59 | IC50 (PBLUC_HILL_SLOPE 3.89, PBLUC_R_SQUARED 0.475, read-out: LUCIFERASE INFECTION ASSAY - IC50): 5.88 µM |
| CC(C)CN1C(=O)N(C)C(=O)C12CCN(Cc1cc3ccccc3s1)CC2 | > 8.56 | IC50 (PBLUC_HILL_SLOPE 3.77, PBLUC_R_SQUARED 0.71, read-out: LUCIFERASE INFECTION ASSAY - IC50): 6.78 µM |
| CC(C)N(C(C)C)S(=O)(=O)c1ccc(NNC(=O)Nc2ccccc2F)nc1 | > 10 | IC50 (PBLUC_HILL_SLOPE 3.78, PBLUC_R_SQUARED 0.132, read-out: LUCIFERASE INFECTION ASSAY - IC50): 6.19 µM |
| CCCn1c(N)c(C(=O)COC(=O)C2(c3ccc(F)cc3)CCCC2)c(=O)[nH]c1=O | 8.39 | IC50 (PBLUC_HILL_SLOPE 3.75, PBLUC_R_SQUARED 0.743, read-out: LUCIFERASE INFECTION ASSAY - IC50): 4.66 µM |
| O=C(CN1CCN(C(=O)/C=C/c2sc3ccccc3c2Cl)CC1)NC1CC1 | 8.7 | IC50 (PBLUC_HILL_SLOPE 3.79, PBLUC_R_SQUARED 0.282, read-out: LUCIFERASE INFECTION ASSAY - IC50): 4.87 µM |
| Cc1cc2ncc(-c3ccnc(SCc4cccc(Cl)c4)n3)c(C)n2n1 | 8.63 | IC50 (PBLUC_HILL_SLOPE 3.9, PBLUC_R_SQUARED 0.625, read-out: LUCIFERASE INFECTION ASSAY - IC50): 4.91 µM |
| Clc1ccc(Nc2nccc3nc(-c4ccccc4)[nH]c23)cc1 | > 10 | IC50 (PBLUC_HILL_SLOPE 3.81, PBLUC_R_SQUARED 0.353, read-out: LUCIFERASE INFECTION ASSAY - IC50): 6.7 µM |
| NC(=O)C(C(=O)/C=C/c1c(Cl)cccc1Cl)=C1SCS1 | > 10 | IC50 (PBLUC_HILL_SLOPE 3.86, PBLUC_R_SQUARED 0.315, read-out: LUCIFERASE INFECTION ASSAY - IC50): 6.18 µM |
| CCCCN(C)S(=O)(=O)c1ccc(NC(=O)c2cccc(C(F)(F)F)c2)cc1 | > 10 | IC50 (PBLUC_HILL_SLOPE 3.75, PBLUC_R_SQUARED 0.618, read-out: LUCIFERASE INFECTION ASSAY - IC50): 5.87 µM |
| CN(C)Cc1ccccc1NC(=O)Nc1ccc(Cl)cc1 | 7.23 | IC50 (PBLUC_HILL_SLOPE 3.91, PBLUC_R_SQUARED 0.658, read-out: LUCIFERASE INFECTION ASSAY - IC50): 4.13 µM |
| O=C(CN1C(=O)NC(Cc2ccccc2)(c2ccccc2)C1=O)N1CCc2ccccc2C1 (stereo not given) | > 10 | IC50 (PBLUC_HILL_SLOPE 3.92, PBLUC_R_SQUARED 0.472, read-out: LUCIFERASE INFECTION ASSAY - IC50): 7.9 µM |
| COc1ccc(-c2nc3ccc(NC(=O)Nc4ccc(F)c(Cl)c4)cn3n2)cc1 | 8.19 | IC50 (PBLUC_HILL_SLOPE 3.84, PBLUC_R_SQUARED 0.577, read-out: LUCIFERASE INFECTION ASSAY - IC50): 4.62 µM |
| O=C(NCCSCc1ccccc1Cl)c1cccs1 | 8.99 | IC50 (PBLUC_HILL_SLOPE 3.91, PBLUC_R_SQUARED 0.447, read-out: LUCIFERASE INFECTION ASSAY - IC50): 5.12 µM |
| c1ccc(OCCCN2CCC(c3nc4ccccc4s3)CC2)cc1 | > 9.36 | IC50 (PBLUC_HILL_SLOPE 3.81, PBLUC_R_SQUARED 0.48, read-out: LUCIFERASE INFECTION ASSAY - IC50): 7.8 µM |
| CN(c1ccccc1)c1ccc(/C=N/NC(=O)c2ccc3c(=O)n4c(nc3c2)CCCCC4)cc1 | > 10 | IC50 (PBLUC_HILL_SLOPE 3.8, PBLUC_R_SQUARED 0.483, read-out: LUCIFERASE INFECTION ASSAY - IC50): 6.28 µM |
| CCCCOC1(c2ccc(C)cc2)N=C(SCC(=O)NCC(C)C)NN=C1c1ccc(C)cc1 (stereo not given) | > 10 | IC50 (PBLUC_HILL_SLOPE 3.83, PBLUC_R_SQUARED 0.417, read-out: LUCIFERASE INFECTION ASSAY - IC50): 6.12 µM |
| O=C(CN1CCN(CCOc2ccccc2)CC1)Nc1cc(C(F)(F)F)ccc1Cl | > 10 | IC50 (PBLUC_HILL_SLOPE 3.77, PBLUC_R_SQUARED 0.518, read-out: LUCIFERASE INFECTION ASSAY - IC50): 7.08 µM |
| Cc1nc(NCCCc2n[nH]c(N)c2C#N)c2c(-c3ccccc3)csc2n1 | 9.77 | IC50 (PBLUC_HILL_SLOPE 3.76, PBLUC_R_SQUARED 0.424, read-out: LUCIFERASE INFECTION ASSAY - IC50): 5.44 µM |
| CCOC(=O)c1c(C)c(C)n(Cc2ccccc2)c1NC(=O)c1ccccc1 | > 8.77 | IC50 (PBLUC_HILL_SLOPE 3.81, PBLUC_R_SQUARED 0.298, read-out: LUCIFERASE INFECTION ASSAY - IC50): 6.38 µM |
| Oc1cccc(-c2nccc3n[nH]c(-c4cccc(F)c4)c23)c1 | > 10 | IC50 (PBLUC_HILL_SLOPE 3.75, PBLUC_R_SQUARED 0.113, read-out: LUCIFERASE INFECTION ASSAY - IC50): 6.03 µM |
